Experimental data taken from ChEMBL document CHEMBL4371025, “Discovery and evaluation of novel FAAH inhibitors in neuropathic pain model” (Bioorg Med Chem Lett, 2019).
Active and inactive are the calls of the source. No cut-off for these calls is given here.

Columns and labels:
[1] = molecular target: T1, Fatty-acid amide hydrolase 1 (Rattus norvegicus) (UniProt P97612); experiment: Inhibition of rat FFAH expressed in Escherichia coli at 100 nM using AAMCA as substrate incubated for 1 min measured for 50 mins by fluorescence assay relative to control
T1 sequence (whole entry): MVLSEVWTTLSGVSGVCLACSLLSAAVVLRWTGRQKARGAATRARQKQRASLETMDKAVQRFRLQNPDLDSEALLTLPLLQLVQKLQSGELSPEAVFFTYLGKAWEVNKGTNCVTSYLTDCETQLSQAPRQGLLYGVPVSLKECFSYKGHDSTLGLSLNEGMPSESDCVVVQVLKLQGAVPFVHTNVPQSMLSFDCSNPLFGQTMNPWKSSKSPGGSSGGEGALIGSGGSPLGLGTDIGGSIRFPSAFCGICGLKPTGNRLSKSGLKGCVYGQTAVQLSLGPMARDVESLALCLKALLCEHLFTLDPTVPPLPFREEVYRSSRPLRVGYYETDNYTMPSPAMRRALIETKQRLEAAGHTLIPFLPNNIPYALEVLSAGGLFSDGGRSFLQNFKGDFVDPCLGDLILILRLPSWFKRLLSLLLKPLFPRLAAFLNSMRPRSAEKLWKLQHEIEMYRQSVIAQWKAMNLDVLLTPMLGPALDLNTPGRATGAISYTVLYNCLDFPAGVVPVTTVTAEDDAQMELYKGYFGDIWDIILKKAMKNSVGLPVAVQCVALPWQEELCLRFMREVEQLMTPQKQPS

[2] = molecular target: T2, Fatty-acid amide hydrolase 1 (Homo sapiens, UniProt O00519); experiment: Inhibition of human transmembrane domain deficient FFAH expressed in Escherichia coli using AAMCA as substrate incubated for 1 min measured for 50 mins by fluorescence assay
T2 sequence (O00519 whole entry): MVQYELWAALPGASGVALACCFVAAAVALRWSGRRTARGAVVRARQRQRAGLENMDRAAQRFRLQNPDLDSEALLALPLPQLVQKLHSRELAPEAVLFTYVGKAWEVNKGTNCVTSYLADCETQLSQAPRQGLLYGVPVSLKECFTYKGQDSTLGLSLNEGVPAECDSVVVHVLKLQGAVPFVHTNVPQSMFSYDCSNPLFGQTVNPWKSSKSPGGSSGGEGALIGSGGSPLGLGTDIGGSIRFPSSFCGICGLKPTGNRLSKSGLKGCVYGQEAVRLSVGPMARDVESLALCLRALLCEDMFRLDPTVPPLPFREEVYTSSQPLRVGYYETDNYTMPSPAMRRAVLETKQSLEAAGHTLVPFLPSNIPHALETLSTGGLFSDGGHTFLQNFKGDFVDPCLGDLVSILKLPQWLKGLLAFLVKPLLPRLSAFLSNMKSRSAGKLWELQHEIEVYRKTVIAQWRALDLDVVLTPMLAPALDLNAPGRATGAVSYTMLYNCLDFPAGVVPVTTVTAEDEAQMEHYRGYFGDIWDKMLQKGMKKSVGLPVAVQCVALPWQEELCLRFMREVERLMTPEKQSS

[3] = Intrinsic metabolic stability in human liver microsomes assessed as metabolic turnover rate per mg protein at 1 uM preincubated for 5 mins followed by NADPH cofactor addition and measured after 30 mins by LC-MS/MS analysis; assay type: ADME, Microsome; conditions: 0.5 h
[4] = Intrinsic metabolic stability in rat liver microsomes assessed as metabolic turnover over per mg protein at 1 uM preincubated for 5 mins followed by NADPH cofactor addition and measured after 30 mins by LC-MS/MS analysis; assay type: ADME, Microsome; conditions: 0.5 h
[5] = molecular target: T3, Fatty-acid amide hydrolase 1 (Rattus norvegicus, UniProt P97612); experiment: Inhibition of rat FFAH expressed in Escherichia coli using AAMCA as substrate incubated for 1 min measured for 50 mins by fluorescence assay
T3 sequence (P97612 whole entry): T1 sequence (whole entry)

[6] = molecular target: T4, Fatty-acid amide hydrolase 1 (Homo sapiens) (UniProt O00519); experiment: Reversible inhibition of human transmembrane domain deficient FFAH expressed in Escherichia coli assessed as residual activity at 10 times IC50 using AAMCA as substrate preincubated for 1 hr followed by substrate addition and subsequent 10 fold compound dilution by fluorescence assay relative to control
T4 sequence (whole entry): T2 sequence (O00519 whole entry)

[7] = molecular target: T4, Fatty-acid amide hydrolase 1 (Homo sapiens); experiment: Reversible inhibition of human transmembrane domain deficient FFAH expressed in Escherichia coli assessed as residual activity at 10 times IC50 using AAMCA as substrate preincubated for 1 hr followed by substrate addition by fluorescence assay relative to control
[8] = molecular target: T4, Fatty-acid amide hydrolase 1 (Homo sapiens); experiment: Substrate activity at human transmembrane domain deficient FFAH expressed in Escherichia coli assessed as parent compound remaining at 2 times IC50 after 15 mins by MS analysis
[9] = molecular target: T4, Fatty-acid amide hydrolase 1 (Homo sapiens); experiment: Substrate activity at human transmembrane domain deficient FFAH expressed in Escherichia coli assessed as parent compound remaining at 2 times IC50 after 30 mins by MS analysis
[10] = molecular target: T4, Fatty-acid amide hydrolase 1 (Homo sapiens); experiment: Substrate activity at human transmembrane domain deficient FFAH expressed in Escherichia coli assessed as parent compound remaining at 2 times IC50 after 60 mins by MS analysis
[11] = molecular target: T4, Fatty-acid amide hydrolase 1 (Homo sapiens); experiment: Substrate activity at human transmembrane domain deficient FFAH expressed in Escherichia coli assessed as parent compound remaining at 2 times IC50 measured immediately by MS analysis
[12] = molecular target: T1, Fatty-acid amide hydrolase 1 (Rattus norvegicus); experiment: Inhibition of rat FFAH expressed in Escherichia coli at 10 uM using AAMCA as substrate incubated for 1 min measured for 50 mins by fluorescence assay relative to control
Rattus norvegicus [13] = experiment: Antihyperalgesic activity in Sprague-Dawley rat model of cisplatin-induced peripheral neuropathy assessed as increase in paw withdrawal latency at 30 mg/kg, po administered as single dose via gavage measured 4 hrs post dose by plantar test; assay type: functional, organism-based
Rattus norvegicus [14] = experiment: Antihyperalgesic activity in Sprague-Dawley rat model of cisplatin-induced peripheral neuropathy assessed as increase in paw withdrawal latency at 30 mg/kg, po administered once daily via gavage for 6 days measured 24 hrs post last dose by plantar test; assay type: functional, organism-based
Rattus norvegicus [15] = experiment: Antihyperalgesic activity in Sprague-Dawley rat model of cisplatin-induced peripheral neuropathy assessed as increase in paw withdrawal latency at 3 mg/kg, po administered as single dose via gavage measured 4 hrs post dose by plantar test; assay type: functional, organism-based
Rattus norvegicus [16] = experiment: Antihyperalgesic activity in Sprague-Dawley rat model of cisplatin-induced peripheral neuropathy assessed as increase in paw withdrawal latency at 30 mg/kg, po administered once daily via gavage for 7 days measured 4 hrs post last dose by plantar test; assay type: functional, organism-based
Rattus norvegicus [17] = experiment: Antihyperalgesic activity in Sprague-Dawley rat model of cisplatin-induced peripheral neuropathy assessed as increase in paw withdrawal latency at 40 mg/kg, po administered once daily via gavage for 7 days measured 4 hrs post last dose by plantar test; assay type: functional, organism-based
Rattus norvegicus [18] = experiment: Antihyperalgesic activity in Sprague-Dawley rat model of cisplatin-induced peripheral neuropathy assessed as increase in paw withdrawal latency at 10 mg/kg, po administered once daily via gavage for 7 days measured 4 hrs post last dose by plantar test; assay type: functional, organism-based
[19] = AUC (0 to 48 hrs) in Sprague-Dawley rat at 1 mg/kg, iv administered as single dose by LC-MS/MS analysis; assay type: ADME, organism-based; parameters: dose 1 mg/kg, time < 48 hr, route intravenous; conditions: in vivo
[20] = Volume of distribution at steady state in Sprague-Dawley rat at 1 mg/kg, iv administered as single dose by LC-MS/MS analysis; assay type: ADME, organism-based; conditions: in vivo, read-out: Vdss
[21] = Clearance in Sprague-Dawley rat at 1 mg/kg, iv administered as single dose by LC-MS/MS analysis; assay type: ADME, organism-based; conditions: in vivo
[22] = Elimination half life in Sprague-Dawley rat at 1 mg/kg, iv administered as single dose by LC-MS/MS analysis; assay type: ADME, organism-based; conditions: in vivo, read-out: beta t1/2 (converted)
[23] = Cmax in Sprague-Dawley rat at 10 mg/kg, po administered as single dose via gavage by LC-MS/MS analysis; assay type: ADME, organism-based; parameters: dose 10 mg/kg, route oral; conditions: in vivo
[24] = AUC (0 to 48 hrs) in plasma of Sprague-Dawley rat at 10 mg/kg, po administered as single dose via gavage by LC-MS/MS analysis; assay type: ADME, organism-based; parameters: time < 48 hr, dose 10 mg/kg, route oral
[25] = Oral bioavailability in Sprague-Dawley rat at 10 mg/kg administered as single dose via gavage by LC-MS/MS analysis; assay type: ADME, organism-based; conditions: in vivo

Row | SMILES | IC50 [2] [µM] | Drug metabolism [3] [nmol/min/mg] | Drug metabolism [4] [nmol/min/mg] | IC50 [5] [µM] | also measured
1 | O=C(NC1CCC(=Cc2cccc(Oc3ccc(C(F)(F)F)cn3)c2)CC1)c1ccncc1 (racemic) | – | – | – | – | inhibition [1]: 15%
2 | Nc1ccc(C(=O)N[C@H]2CC/C(=C/c3cccc(Oc4ccc(C(F)(F)F)cn4)c3)CC2)cn1 (centres undefined) | 0.45 | – | – | – | –
3 | O=C(NC1CCC(=Cc2cccc(Oc3ccc(C(F)(F)F)cn3)c2)CC1)c1ccc(-n2nccn2)nc1 (racemic) | – | 0.09 | 0.04 | – | –
4 | O=C(NC1CCC(=Cc2cccc(Oc3ccc(C(F)(F)F)cn3)c2)CC1)c1cc[nH]n1 (racemic) | – | – | – | 0.266 | –
5 | O=C(Nc1cccnc1)N1CCC(Cc2cccc(Oc3ccc(C(F)(F)F)cn3)c2)CC1 | 0.0026 | – | – | 0.0115 | Activity [6]: inactive; Activity [7]: 20%; Activity [8]: 77.2%; Activity [9]: 54.4%; Activity [10]: 40.4%; Activity [11]: 100%
6 | Nc1ncc(C(=O)NC2CCC(=Cc3cccc(Oc4ccc(C(F)(F)F)cn4)c3)CC2)cc1Cl (racemic) | 0.004 | 0.06 | < 0.04 | 0.052 | –
7 | O=C(NC1CCC(=Cc2cccc(Oc3ccc(C(F)(F)F)cn3)c2)CC1)c1cn[nH]c1 (racemic) | – | 0.04 | < 0.04 | 0.0646 | –
8 | Nc1ccc(C(=O)NC2CCC(=Cc3cccc(Oc4ccc(C(F)(F)F)cn4)c3)CC2)cn1 (centres undefined) | – | – | – | – | inhibition [12]: 70%
9 | Cc1cc(C(=O)N[C@H]2CC/C(=C/c3cccc(Oc4ccc(C(F)(F)F)cn4)c3)CC2)cnc1N (centres undefined) | 0.227 | – | – | 2.3 | –
10 | Nc1ncc(C(=O)NC2CCC(=Cc3cccc(Oc4ccc(C(F)(F)F)cn4)c3)CC2)cn1 (centres undefined) | – | – | – | – | Activity (Rattus norvegicus [13]): Active; Activity (Rattus norvegicus [14]): Active; Activity (Rattus norvegicus [15]): inactive; Activity (Rattus norvegicus [16]): Active
11 | COc1cccc([C@@]2(O)CCCC[C@@H]2CN(C)C)c1 | – | – | – | – | Activity (Rattus norvegicus [17]): Active
12 | O=C(NC1CCC(=Cc2cccc(Oc3ccc(C(F)(F)F)cn3)c2)CC1)c1cccnc1 (racemic) | 0.0022 | 0.06 | 0.06 | – | –
13 | O=C(Nc1cccnn1)N1CCC(=Cc2cccc(Oc3ccc(C(F)(F)F)cn3)c2)CC1 | 0.0018 | – | – | 0.0057 | Activity (Rattus norvegicus [18]): Active
14 | O=C(N[C@H]1CC/C(=C/c2cccc(Oc3ccc(C(F)(F)F)cn3)c2)CC1)c1cccnc1 (centres undefined) | 0.414 | – | – | – | –
15 | O=C(NC1CCC(=Cc2cccc(Oc3ccc(C(F)(F)F)cn3)c2)CC1)c1cccnn1 (racemic) | 0.009 | – | – | – | –
16 | Cc1cc(C(=O)NC2CCC(=Cc3cccc(Oc4ccc(C(F)(F)F)cn4)c3)CC2)cnc1N (centres undefined) | – | – | – | – | Activity (Rattus norvegicus [13]): Active; Activity (Rattus norvegicus [14]): Active; Activity (Rattus norvegicus [15]): inactive; Activity (Rattus norvegicus [16]): Active
17 | O=C(NC1CCC(=Cc2cccc(Oc3ccc(C(F)(F)F)cn3)c2)CC1)c1ccc(-n2cccn2)nc1 (racemic) | 0.0067 | 0.11 | 0.09 | 0.0066 | AUC(0-t) at 48 h [19]: 8 µM·h; Vd [20]: 4.6 L/kg; clearance [21]: 0.144 L/h/kg; half-life [22]: > 10 h; Cmax [23]: 0.09 µM; AUC(0-t) at 48 h [24]: 0.9 µM·h; bioavailability [25]: 1.2%
18 | Nc1ncc(C(=O)N[C@H]2CC/C(=C/c3cccc(Oc4ccc(C(F)(F)F)cn4)c3)CC2)cn1 (centres undefined) | 0.083 | – | – | 1.5 | –
19 | O=C(CCCCCCc1ccccc1)c1ncc(-c2ccccn2)o1 | – | – | – | – | Activity [6]: 30%
20 | O=C(NC1CCC(=Cc2cccc(Oc3ccc(C(F)(F)F)cn3)c2)CC1)c1cccnc1 (centres undefined) | – | – | – | – | inhibition [12]: 60%
21 | O=C(NC1CCC(=Cc2cccc(Oc3ccc(C(F)(F)F)cn3)c2)CC1)c1cncnc1 (racemic) | – | < 0.04 | 0.07 | – | –
22 | O=C(NC1CCC(=Cc2cccc(Oc3ccc(C(F)(F)F)cn3)c2)CC1)c1ccc(Cl)nc1 (racemic) | 0.0051 | 0.06 | 0.04 | 0.0807 | –
23 | Nc1ncc(C(=O)NC2CCC(=Cc3cccc(Oc4ccc(C(F)(F)F)cn4)c3)CC2)cn1 (racemic) | 0.002 | 0.03 | 0.02 | – | –
24 | Cc1cc(C(=O)NC2CCC(=Cc3cccc(Oc4ccc(C(F)(F)F)cn4)c3)CC2)cnc1N (racemic) | – | 0.09 | 0.04 | – | –
25 | Nc1ccc(C(=O)NC2CCC(=Cc3cccc(Oc4ccc(C(F)(F)F)cn4)c3)CC2)cn1 (racemic) | – | 0.07 | 0.05 | 0.0313 | –
